# Measured values as given in US20250320497A1, “COMPOSITIONS AND METHODS FOR TREATING HEPATITIS B VIRUS (HBV) INFECTION AND HBV-ASSOCIATED DISEASES” (priority 2022, published 2025).
# How the values were obtained:
# chronic HBV infection [1] = conditions: after 48 weeks of therapy; cited from earlier work
# chronic HBV infection [2] = conditions: cited from earlier work
# chronic HBV infection [3] = conditions: PEG-IFNα add-on therapy; cited from earlier work
# HBV = experiment: Preclinical pharmacology of SIRNA01 against HBV
# From the text: In some embodiments, the siRNA that targets HBV mRNA is SIRNA01. SIRNA01 is a synthetic, chemically modified siRNA targeting HBV RNA with a covalently attached triantennary N-acetyl-galactosamine (GalNAc) ligand that allows for specific uptake by hepatocytes. […] An SIRNA can have multiple antiviral effects, including degradation of the pgRNA, thus inhibiting viral replication, and degradation of all viral mRNA transcripts, thereby preventing expression of viral proteins. This may result in the return of a functional immune response directed against HBV, either alone or in combination with other therapies. The ability of SIRNA01 to reduce HBsAg-containing noninfectious subviral particles also distinguishes it from currently available treatments.
# SIRNA01 targets and inhibits expression of an mRNA encoded by an HBV genome according to NCBI Reference Sequence NC_003977.2 (GenBank Accession No. GI:21326584) (SEQ ID NO:1). More specifically, SIRNA01 targets an mRNA encoded by a portion of the HBV genome comprising the sequence […] (SEQ ID NO:2), which corresponds to nucleotides 1579-1597 of SEQ ID NO:1. Because transcription of the HBV genome results in polycistronic, overlapping RNAs, SIRNA01 results in significant inhibition of expression of most or all HBV transcripts.
# chronic HBV infection [4] = conditions: patients with chronic HBV infection; cited from earlier work
# HBsAg = HBsAg (Hepatitis B virus genotype D subtype ayw, UniProt P03138); experiment: Activity measured diagnostically with an immunoassay; assay type: binding
# From the text: (§1) In certain embodiments, the anti-HBV antibody is HBC34 or an engineered variant thereof. HBC34 are human antibodies against HBsAg with high neutralizing activity. […] The activity of HBC34, as measured diagnostically with an immunoassay, is 5000 IU/mg. As a comparison, the activity of HBIG is ˜1 IU/mg.
# antigenic loop of HBsAg = experiment: Binding of HBC34 to HBsAg antigenic loop, genotypes and mutants; parameters: species or system HBV
# From the text: as §1
substance,measurement,setting,value
peginterferon-alfa-2a [PEG-IFNα],percentage of patients with long-term viral control,chronic HBV infection [1],< 10%
same,"HBsAg loss, patients overall","chronic HBV infection [2]; PEG-IFNα 180 g administered weekly for 48-52 weeks, approximately",≤ 10%
same,"rate of HBsAg loss, subset with low baseline HBsAg","chronic HBV infection [2]; baseline HBsAg less than approximately 1,000-1,500 IU/mL, with or without an NRTI",20-40%
same,mean HBsAg reduction at Week 24,chronic HBV infection [3],0.57 log10 IU/mL
"SIRNA01: synthetic, chemically modified GalNAc-conjugated siRNA targeting HBV RNA; sense strand SEQ ID NO:5, antisense strand SEQ ID NO:6 (sense GUGUGCACUUCGCUUCACA; antisense UGUGAAGCGAAGUGCACACUU; GalNAc-conjugated, chemically modified, pattern not given here)",pharmacological activity against HBV genotypes,HBV,pharmacologically active against HBV genotypes A through J
same,effect in preclinical models,HBV; preclinical models,"inhibit viral replication, translation, and secretion of HBsAg"
same,reduction in HBsAg when administered individually,chronic HBV infection [4],substantial reductions in HBsAg
"HBC34: human antibody against HBsAg with high neutralizing activity; HC SEQ ID NO:56, LC SEQ ID NO:58","activity, as measured diagnostically with an immunoassay",HBsAg,5000 IU/mg
same,HBV genotypes and mutants recognized,antigenic loop of HBsAg,all 10 HBV genotypes and 18 mutants
same,affinity of binding to the antigenic loop of HBsAg,antigenic loop of HBsAg,pM range
